Here are results for eleven molecules from patent US9598424B2 (Takeda Pharmaceutical Company Limited, priority 2014, dated 2017).

The target in the assay is T1, Full length human TBK1 (Homo sapiens, UniProt Q9UHD2).
T1 construct: Full length human TBK1 with an N-terminal His-tag; His-tag (N); made in house; host or cells: Sf9 insect cells (baculovirus, pFastBac1)
T1 sequence (Q9UHD2 1-729): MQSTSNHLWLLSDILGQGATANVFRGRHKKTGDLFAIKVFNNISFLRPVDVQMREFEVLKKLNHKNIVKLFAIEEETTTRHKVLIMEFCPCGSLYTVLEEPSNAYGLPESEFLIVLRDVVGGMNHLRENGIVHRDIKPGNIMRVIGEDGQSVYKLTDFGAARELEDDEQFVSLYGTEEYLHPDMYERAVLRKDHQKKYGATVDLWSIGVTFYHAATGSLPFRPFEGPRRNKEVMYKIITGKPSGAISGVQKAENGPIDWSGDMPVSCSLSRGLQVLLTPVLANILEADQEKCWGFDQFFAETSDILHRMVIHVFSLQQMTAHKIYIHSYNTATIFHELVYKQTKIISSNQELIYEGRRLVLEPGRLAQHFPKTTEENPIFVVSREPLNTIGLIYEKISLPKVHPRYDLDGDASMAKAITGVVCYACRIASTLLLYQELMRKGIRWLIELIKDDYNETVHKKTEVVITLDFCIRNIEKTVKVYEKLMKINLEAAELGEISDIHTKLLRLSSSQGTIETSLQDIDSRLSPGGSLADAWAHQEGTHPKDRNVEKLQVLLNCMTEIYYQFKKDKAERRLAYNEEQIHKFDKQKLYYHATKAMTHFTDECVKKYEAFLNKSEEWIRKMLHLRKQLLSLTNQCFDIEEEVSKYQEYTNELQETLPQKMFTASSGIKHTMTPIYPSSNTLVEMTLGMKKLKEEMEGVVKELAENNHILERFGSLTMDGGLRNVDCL
The assay can be described thus: Inhibition of TBK1 Enzyme (Caliper microfluidic assay). The format is biochemical. To be noted: 25 μM ATP, 60 min at RT; -log(IC50), IC50 molar; read-out: TBK1 Inhibition (pIC50) (converted). The protocol: Full length human TBK1 with an N-terminal His-tag was cloned into the pFastBacl vector and was transfected into Sf9 cells. 72 hours later the virus was harvested and amplified through two additional rounds of infections. Then 400 ml of the resulting virus stock was used to infect 10L of Sf9 cells at a density of 2×10^6 cells/ml. Cell pellets were harvested 48 hours post infection and were lysed by freeze-thaw, homogenization and sonication in binding buffer (25 mM Tris pH7.6, 1 M NaCl, 10 mM imidazole, 0.5 mM TCEP) plus 0.1% Triton X-100 and complete protease inhibitor cocktail. The lysate was spun and the supernatant was purified with a HisTrap FF crude and a Superdex 200 pg column.
TBK1 inhibition is determined using a 384 well plate format in buffer containing 20 mM Hepes, pH 7.4, 10 mM MgCl2, 1 mM EDTA, 0.01% Brij-L23, 1 mM DTT. Each test compound is prepared in DMSO using 2.5-fold serial dilutions for 11 data points, which are added to the buffer so that each dilution contains 1% DMSO. To each well is added 2 μL of 1 μm 5FAM-DRHDSGLDSMKDE-NH2 (in buffer), 2 μL of diluted test compound (1% DMSO in buffer), and 5 μL of 3 nM TBK1 and 25 μM ATP (in buffer). The reaction mixture is incubated at RT for 60 min, and quenched by adding 20 mM Hepes, pH 7.4, 10 mM MgCl2, 1 mM EDTA, 0.01% Brij-L23, 1 mM DTT+25 mM EDTA. To quantify the fluorescent-labeled substrate and product following reaction, the test plate is loaded on a Caliper LC-3000, which measures percent of conversion by microfluidic-based separation. Corresponding IC50 values are calculated by non-linear curve fitting of the compound concentrations and percent of inhibition to the standard IC50 equation and reported as pIC50, i.e., −log(IC50), where IC50 is the molar concentration.
Turning to `COC1CCN(C(=O)c2cc(-c3ccc4nc(NC(=O)C5CC5)cn4c3)cs2)CC1` [Example 58, N-(6-(5-(4-methoxypiperidine-1-carbonyl)thiophen-3-yl)imidazo[1,2-a]pyridin-2-yl)cyclopropanecarboxamide], the IC50 is 794 nM.
Turning to `O=C(Nc1cn2cc(-c3csc(C(=O)N4CCC(CO)C4)n3)ccc2n1)C1CC1` (centres unmarked) [Example 100, N-(6-(2-(3-(hydroxymethyl)pyrrolidine-1-carbonyl)thiazol-4-yl)imidazo[1,2-a]pyridin-2-yl)cyclopropanecarboxamide], the IC50 is 200 nM.
Consider `Cc1sc(C(=O)NCC(F)(F)F)nc1-c1ccc2nc(NC(=O)C3CC3)cn2c1` [Example 31, 4-(2-(cyclopropanecarboxamido)imidazo[1,2-a]pyridin-6-yl)-5-methyl-N-(2,2,2-trifluoroethyl)thiazole-2-carboxamide], for which the IC50 is 398 nM.
With `O=C(NCC(F)(F)F)c1ncc(-c2ccc3nc(NC(=O)C4CC4)cn3c2)s1` [Example 22, 5-(2-(cyclopropanecarboxamido)imidazo[1,2-a]pyridin-6-yl)-N-(2,2,2-trifluoroethyl)thiazole-2-carboxamide], the IC50 is 200 nM.
On to `Cc1sc(C(=O)NCC(F)(F)F)nc1-c1ccc2nc(NC(=O)C3CC3)cn2n1` [Example 20, 4-(2-(cyclopropanecarboxamido)imidazo[1,2-b]pyridazin-6-yl)-5-methyl-N-(2,2,2-trifluoroethyl)thiazole-2-carboxamide], for which the IC50 is 501 nM.
The figure for `COC1CN(C(=O)c2nc(-c3ccc4nc(NC(=O)C5CC5)cn4c3)cs2)C1` [Example 101, N-(6-(2-(3-methoxyazetidine-1-carbonyl)thiazol-4-yl)imidazo[1,2-a]pyridin-2-yl)cyclopropanecarboxamide] is 631 nM.
On to `NC(=O)[C@@H]1CC(F)(F)CN1C(=O)c1cc(-c2ccc3nc(NC(=O)C4CC4)cn3c2)cs1` [Example 82, (S)-1-(4-(2-(cyclopropanecarboxamido)imidazo[1,2-a]pyridin-6-yl)thiophene-2-carbonyl)-4,4-difluoropyrrolidine-2-carboxamide], for which the IC50 is 631 nM.
For the molecule `O=C(NCC(F)F)c1ccn(-c2ccc3nc(NC(=O)C4CC4)cn3n2)n1` [Example 37, 1-(2-(cyclopropanecarboxamido)imidazo[1,2-b]pyridazin-6-yl)-N-(2,2-difluoroethyl)-1H-pyrazole-3-carboxamide], the IC50 is 794 nM.
The result for `O=C1CC(NC(=O)c2nc(-c3ccc4nc(NC(=O)C5CC5)cn4c3)cs2)CN1` (centres unmarked) [Example 99, 4-(2-(cyclopropanecarboxamido)imidazo[1,2-a]pyridin-6-yl)-N-(5-oxopyrrolidin-3-yl)thiazole-2-carboxamide] reads 251 nM; that for `O=C(NCC(F)(F)F)c1cn(-c2ccc3nc(NC(=O)C4CC4)cn3c2)cn1` [Example 41, 1-(2-(cyclopropanecarboxamido)imidazo[1,2-a]pyridin-6-yl)-N-(2,2,2-trifluoroethyl)-1H-imidazole-4-carboxamide], 63.1 nM; that for `O=C(NCCO)c1nc(-c2ccc3nc(NC(=O)C4CC4)cn3c2)cs1` [Example 95, 4-(2-(cyclopropanecarboxamido)imidazo[1,2-a]pyridin-6-yl)-N-(2-hydroxyethyl)thiazole-2-carboxamide], 398 nM.
